Counter-ions that a name gives are not always drawn. Like-named read-outs stand apart in the source and are kept apart here.
Columns and labels:
[1] = Oral bioavailability in animals; format: in vivo; conditions: crystalline free base form as a suspension in water or oil
[2] = Description: (§1) In general, conversion of salts to the unionized form or vice versa can be explained on the basis of pH-solubility theory. […] At pH<pHmax the equilibrium solid converts to the corresponding salt form. The term "equilibrium solid phase" refers to the undissolved or excess solid in a suspension of the compound in water after sufficient equilibration time. When a salt of a weak base is equilibrated in water in an amount exceeding its solubility limit (i.e., a suspension of the salt in water), the resulting pH of the suspension may fall on either side of the pHmax depending on the strength of the acid among other factors. When the resulting pH is greater than the pHmax, the suspended solid converts to the free base.
[3] = pH 1.8
[4] = dog, in vivo
[5] = 40° C./75% RH; for changes in thermal behavior: as little as two weeks
Description: The term physical stability indicates the ability of the salt form to retain its crystal structure (including solvents of crystallization, if any) under storage/stress conditions. Significant changes in the physical nature of the salt form as indicated by thermal methods such as differential scanning calorimetry are undesirable. […] The solid line represents the unstressed material. The dotted line represents the material stressed at 40° C./75% RH for 9 months. […] The solid line represents the unstressed material. The dotted line represents the material stressed at 40° C./75% RH for two weeks. […] The solid line represents the unstressed material. […] The solid line represents the unstressed material. The dotted line represents the material stressed at 40° C./75% RH for two weeks.

[6] = in vivo; conditions: dog, po
[7] = Equilibration of excess salt in water: suspension pH and identity of undissolved solid phase; format: physicochemical; conditions: for pH of the suspension after equilibration / identity of undissolved solid phase after equilibration in water: excess salt in water; for pH of the suspension after equilibration: at least 24 hours (24±3° C. for methane sulfonate and hydrochloride); for identity of undissolved solid phase after equilibration in water: thermal and/or elemental analysis
Description: as §1
The undissolved solids from these suspensions were isolated, air-dried, and characterized.

[8] = Crystal form characterisation (hygroscopicity); format: physicochemical; conditions: crystals obtained from isopropanol
Description: They are now referred to as Type-II crystals. The Type-I crystals appear to be an anhydrous/desolvated crystalline material while the Type-II crystals are a hydrated, hygroscopic crystalline form.

[9] = Aqueous solubility at 24±3° C.; conditions: water
Description: For development of pharmaceutical formulations, particularly oral dosage forms, the active ingredient must have sufficient oral bioavailability.

SMILES	solubility in water [3]	pH of the suspension after equilibration [7]	identity of undissolved solid phase after equilibration in water [7]	changes in thermal behavior [5]	other results
COC(=O)N[C@H](C(=O)N[C@@H](Cc1ccccc1)[C@@H](O)CN(Cc1ccc(-c2ccccn2)cc1)NC(=O)[C@@H](NC(=O)OC)C(C)(C)C)C(C)(C)C [Compound I, [3S-(3R*, 8'R*, 9'R*, 12R*)]-3,12-bis(1,1-dimethylethyl)-8-hydroxy-4,11-dioxo-9-(phenylmethyl)-6-[[4-(2-pyridinyl)phenylmethyl]-2,5,6,10,13-pentaazatetradecanedioic] acid, dimethyl ester]	less than 1 mg/mL				oral bioavailability [1]: poor oral bioavailability; pHmax (pH at which the compound exhibits the highest solubility) [2]: approximately 1.2; oral bioavailability [4]: minimal oral bioavailability
COC(=O)N[C@H](C(=O)N[C@@H](Cc1ccccc1)[C@@H](O)CN(Cc1ccc(-c2ccccn2)cc1)NC(=O)[C@@H](NC(=O)OC)C(C)(C)C)C(C)(C)C [bisulfate salt]	4000 to 5000 µg/mL	1.9±0.2	hydrated form of 2:1 salt of the free base form and sulfuric acid		changes in thermal behavior (differential scanning calorimetry) ([5]; 9 months, vs unstressed sample (2-8° C. closed container)): no significant changes in the thermal behavior; bioavailability [6]: ~20%; solid state transformation when suspended in water ([7]; suspension in water): prevents the conversion to the free base
COC(=O)N[C@H](C(=O)N[C@@H](Cc1ccccc1)[C@@H](O)CN(Cc1ccc(-c2ccccn2)cc1)NC(=O)[C@@H](NC(=O)OC)C(C)(C)C)C(C)(C)C [Type-II crystals]					hygroscopicity [8]: hygroscopic
COC(=O)N[C@H](C(=O)N[C@@H](Cc1ccccc1)[C@@H](O)CN(Cc1ccc(-c2ccccn2)cc1)NC(=O)[C@@H](NC(=O)OC)C(C)(C)C)C(C)(C)C [methanesulfonate]		2.1±0.1	identified as the free base	significant changes in their thermal behavior	
COC(=O)N[C@H](C(=O)N[C@@H](Cc1ccccc1)[C@@H](O)CN(Cc1ccc(-c2ccccn2)cc1)NC(=O)[C@@H](NC(=O)OC)C(C)(C)C)C(C)(C)C [hydrochloride]		2.1±0.1	identified as the free base	significant changes in their thermal behavior	
COC(=O)N[C@H](C(=O)N[C@@H](Cc1ccccc1)[C@@H](O)CN(Cc1ccc(-c2ccccn2)cc1)NC(=O)[C@@H](NC(=O)OC)C(C)(C)C)C(C)(C)C [benzenesulfonate]					solubility [9]: 1000 to 3000 µg/mL

— US6087383A (Bristol-Myers Squibb Company, priority 1998, dated 2000)
